Experimental findings from PubChem BioAssay AID449764 (Southern Research Specialized Biocontainment Screening …, 2010) are described below.

The assay concerns Mycobacterium tuberculosis H37Rv growth inhibition, no glycerol. In words: Confirmatory growth inhibition assay, Mycobacterium tuberculosis H37Rv, absence of glycerol (AID 449764).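 On all read-outs here: growth read after 7 days of incubation.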 Conditions: for IC90: measured here: IC90 growth inhibition.

Where a SMILES comes first, the peptide text is derived from it. [ ]: non-standard residue; d: D form. The star is where a group is joined. ξ: configuration not given here. ξF = NC(Cc1ccccc1)C(=O)O; Cbz = O=C(OCc1ccccc1)*

The IC50 is the concentration at which inhibition is half-maximal. The term IC90 denotes the concentration needed for an effect of 90%. Read a high IC90 as a need for much substance. Take `COc1cccc(NC(=O)CNC(=O)Cn2cnc3sc4c(c3c2=O)CCCC4)c1`: the IC50 was 66.7 µM and the IC90 was > 100 µM. The corresponding values for `O=C(Cc1ccc([N+](=O)[O-])cc1)Nc1cc(C(F)(F)F)cc(C(F)(F)F)c1` are 2.48 µM and 3.41 µM. In the same order, the values of `COc1nn(-c2ccccc2)c(=O)c(Cl)c1Cl` are 10.3 µM and 13.6 µM. The corresponding values for `CC1=CC(=O)c2c(O)ccc(O)c2C1=O` are 5.64 µM and 7.87 µM. With `Cc1cccc(C(=O)NNC(=S)NC(=O)c2ccccc2)c1`, the IC50 is 1.56 µM and the IC90 was found to be 2.69 µM. In the same order, the values of `O=C(/C=C/c1ccccc1)N1CCN(CCN2C(=O)c3cccc4cccc(c34)C2=O)CC1` are 2.44 µM and 3.96 µM. As for `CC(=O)Nc1sc2c(c1-c1nc3ccccc3s1)CCN(C(C)C)C2`, the IC50 was 8.64 µM and the IC90 stood at 11.2 µM.

Take `COC(=O)c1ccc(NC(=S)NC(=O)C2CCC2)cc1`: the concentration for half-maximal inhibition (IC50) is 43.6 µM and the IC90 was > 100 µM. With `CC(=O)c1c(N2CCCC2)[nH]c(-c2ccccc2)nc1=S`, the IC50 is 81.4 µM and the IC90 was > 100 µM. In the same order, the values of `CCN(CC)c1ccc2c(Cl)c(Br)c(=O)oc2c1` are 22.6 µM and 61.6 µM. In the same order, the values of `Nc1c2c(nc3sc4c(c13)CCCCC4)CCCC2` are 3.12 µM and 8.41 µM. For `COc1ccc(/C=N/OCC(=O)OCC(=O)N(C)c2ccccc2)cc1`, the IC50 is 25.9 µM and the IC90 is 51.8 µM. The corresponding values for `Cc1cc2cc(CNC(=O)NC3CCCCC3)ccc2[nH]1` are 36 µM and 53.7 µM.

For the molecule `CN(C)N=Nc1nc[nH]c1C(N)=O`, the IC50 is 5.04 µM and the concentration for an effect of 90% (IC90) came to 8.38 µM.

As for `Cc1ccc(CN2CCC(c3cc(-c4ccc(Cl)cc4)n[nH]3)CC2)cc1`, the IC50 was 11.7 µM and the IC90 came to 18.2 µM. Regarding `CCn1c(NC(=O)c2nn(C)cc2Br)nc2ccccc21`, the half-inhibitory concentration (IC50) was 9.5 µM and the 90% effect concentration (IC90) worked out at 16.8 µM. With `CCCn1nnnc1NC(=O)c1ccc(C)cc1Cl`, the IC50 is 16.1 µM and the concentration for an effect of 90% (IC90) came out at 33.1 µM.

Consider `CCc1ccc(NC(=O)CSc2nc3n[nH]c(C)c3c(=N)n2-c2cccc(OC)c2)cc1`, for which the half-inhibitory concentration (IC50) was 72.8 µM and the IC90 is > 100 µM. In the same order, the values of `Oc1ccc2ccccc2c1N=Nc1nccs1` are 1.96 µM and 3.06 µM. With `COc1ccc(/C=N/Nc2cc(N3CCCC3)nc(N3CCCC3)n2)cc1`, the IC50 was 18.6 µM and the IC90 was 24 µM. In the same order, the values of `CC(C)Oc1ccc(-c2nc(NCC3CCCO3)c3ccccc3n2)cc1` (configuration not stated) are 62.3 µM and 98.3 µM.

In the case of `Cc1nc(-c2ccccc2)sc1C(=O)/C=C/c1ccccc1`, the IC50 was 12.4 µM and the IC90 came to 13.6 µM. In the same order, the values of `CN(C)c1ccc(/C=C2\N=C(C(C)(C)C)OC2=O)cc1` are 86 µM and > 100 µM.

On to `COc1cc(OC)cc(-c2cc3nc(C)c(CCC(=O)NC(C)CCc4ccco4)c(C)n3n2)c1` (configuration not stated), for which the IC50 is 53.2 µM and the IC90 amounted to 90.5 µM. For `Cc1cc(-c2n[nH]c(=S)n2/N=C/C(Br)=C/c2ccccc2)n[nH]1`, the half-maximal inhibitory concentration (IC50) is 5.55 µM and the IC90 worked out at 8.35 µM. In the same order, the values of `CCOc1ccc(N2C=Nc3ccc(OCC)cc3C2)cc1` are 79.2 µM and > 100 µM. For the molecule `O=C(NN=C1c2ccccc2-c2ccccc21)c1cccc(Br)c1`, the IC50 was 42.2 µM and the IC90 is > 100 µM. Regarding `CCOC(=O)CNC(=O)C(Cc1ccccc1)NC(=O)OCc1ccccc1` (configuration not stated) (Cbz-[ξF]-Gly-OEt), the IC50 was 3.04 µM and the IC90 came to 3.46 µM.

In the case of `Cc1ccccc1Cn1cc(NC(=O)c2noc(C(C)C)c2[N+](=O)[O-])cn1`, the IC50 was 5.01 µM and the IC90 worked out at 8.45 µM. The corresponding values for `O=C(Nc1ccc2nsnc2c1)NC1CCCCC1` are 44.3 µM and > 100 µM.

Regarding `CN=c1scc(-c2ccccc2Br)n1/N=C/c1ccc[nH]1`, the IC50 is 88.3 µM and the concentration for an effect of 90% (IC90) was 92.2 µM.

Consider `C=CC[n+]1ccn(-c2nc3ccccc3nc2[N-]S(=O)(=O)c2cccs2)c1`, for which the IC50 was 42.6 µM and the IC90 amounted to 48.1 µM. Turning to `O=c1oc(-c2cccs2)nc2c1cnn2-c1ccccc1`, the 90% effect concentration (IC90) was > 100 µM.

Take `O=C(CCSc1ccccn1)c1ccccc1`: the IC50 is 24.6 µM and the IC90 worked out at 34.1 µM. In the same order, the values of `CCOC(=O)c1cc2cc3ccccc3cc2oc1=O` are 84.8 µM and > 100 µM.

Turning to `Cc1ccc(OC(=O)CCN2C(=O)c3ccccc3C2=O)cc1C`, the IC50 was 85.1 µM and the IC90 was > 100 µM.

Take `CCCCN(CCCC)CCC(O)c1cc2c(Cl)cc(Cl)cc2c2cc(C(F)(F)F)ccc12` (configuration not stated): the IC50 is 17.6 µM and the IC90 is 23.4 µM. The corresponding values for `CSCCC(=O)N1CCCC(CNC(=O)c2ccc(-c3ccccc3)cc2)C1` (configuration not stated) are 41.5 µM and 70.6 µM. In the same order, the values of `CCCNc1nc(-c2cc(C(=O)Nc3ccccc3)on2)cc(C(C)C)n1` are 42.5 µM and 68.9 µM. In the same order, the values of `NC(=S)N/N=C/c1ccccc1OCCSc1ccc(Cl)cc1` are 37.8 µM and > 100 µM.

Take `C=C1C(=O)[C@@]23[C@H](O)C[C@@H]4C(C)(C)CC[C@H](O)[C@@]4(C)[C@@H]2CC[C@@H]1[C@H]3O`: the IC50 is 8.35 µM and the IC90 came out at 11.3 µM. Turning to `COc1ccc(C)c2sc(N(CCN(C)C)C(=O)/C=C/c3cccs3)nc12`, the IC50 is 30.6 µM and the IC90 stood at 36.1 µM. Take `CC(C)Oc1ccc(C(=O)N/N=C/c2ccc(-c3ccc(S(=O)(=O)Nc4ncccn4)cc3)o2)cc1`: the IC50 was 55.8 µM and the IC90 is 89.7 µM. In the same order, the values of `Cc1ccc(OCCCCNC2CCCC(C)C2C)c(C)c1` (configuration not stated) are 23.1 µM and 25.4 µM. On to `C#CCOc1ccc2c(c1)c(C(C)=O)c(C)n2Cc1ccccc1`, for which the IC90 was > 100 µM. As to `O=C(N/N=C/c1ccc([N+](=O)[O-])o1)c1sc2ccccc2c1Cl`, the IC50 is 5.69 µM and the IC90 worked out at 8.72 µM. The corresponding values for `COC(=O)c1c(NC(=O)CC2SC(N)=NC2=O)sc2c1CCC(C(C)(C)C)C2` (configuration not stated) are 40.2 µM and 64.4 µM. In the same order, the values of `Cc1ccc(-c2ccnc(=S)[nH]2)cc1` are 55.9 µM and > 100 µM. In the case of `O=C(NNC1CC(=O)N(c2ccc(Br)cc2)C1=O)c1ccccn1` (configuration not stated), the IC50 is 29.5 µM and the IC90 was > 100 µM. Take `COc1cc(NC(=O)c2cccs2)c(C(=O)OCC(=O)NCc2ccco2)cc1OC`: the IC50 is 34.9 µM and the 90% effect concentration (IC90) was > 100 µM. In the same order, the values of `CC1=NN(c2ccccc2)C(=O)C1C(=O)c1ccccc1` (configuration not stated) are 50.6 µM and 78 µM.

Take `CC1CN(c2ccc([N+](=O)[O-])c(NCCOc3ccc(Cl)cc3)c2)CC(C)N1` (configuration not stated): the IC50 was 15.5 µM and the 90% effect concentration (IC90) came out at 31.2 µM. The corresponding values for `O=C(CSc1nc2ccccc2c(=O)[nH]1)NCc1ccc(Cl)cc1` are 2.78 µM and 3.22 µM. In the same order, the values of `CCCCN1C(=O)C2(NNc3ccccc3O2)c2ccccc21` (configuration not stated) are 92.1 µM and > 100 µM.

As to `O=c1oc2ccccc2c(O)c1/C=C1\C=Nc2ccccc21`, the IC50 was 38.8 µM and the IC90 stood at 64.6 µM. The corresponding values for `Oc1ccccc1/C=N/NC(=S)NC1CC2CC1C1C=CCC21` (configuration not stated) are 11.9 µM and 18 µM. In the same order, the values of `O=C(NC(=S)N1CCc2ccccc21)c1ccc(Br)o1` are 10.5 µM and 15.5 µM. Regarding `Cc1ccc(-c2nc3ccsc3c(=O)o2)cc1`, the IC50 is 4.19 µM and the IC90 is > 100 µM. In the same order, the values of `O=C1C2C(C(=O)N1/N=C/c1ccc([N+](=O)[O-])o1)C1C=CC2C12CC2` (configuration not stated) are 32.3 µM and 52.8 µM.

With `NC(=S)N=Nc1ccc(NN=C(N)N)cc1`, the IC50 was 19.3 µM and the IC90 was determined as 27.6 µM. The corresponding values for `COc1cc(OC)nc(-n2ncc(Br)c(Br)c2=O)n1` are 22.5 µM and 25.1 µM. The corresponding values for `COc1cc(-c2ccc3oc(-c4ccsc4)cc(=O)c3c2)cc(OC)c1OC` are 38.1 µM and 53.6 µM.

For `CCOC(=O)CSc1ncc(OC)c(Sc2ccc(OC)cc2)n1`, the IC50 was 18.1 µM and the concentration for an effect of 90% (IC90) was determined as 54.3 µM. In the same order, the values of `Oc1ccccc1-c1nnc(COc2ccccc2)o1` are 19 µM and 28.9 µM. In the same order, the values of `CCOC(=O)c1cc(-c2ccc(N3CCOCC3)cc2)nn1-c1ccccc1` are 27.9 µM and 58.1 µM. The corresponding values for `CCCCCc1ccc(S(=O)(=O)NCCc2ccncc2)cc1` are 36.5 µM and 47 µM. On to `CCOC(=O)N1CCN(C(=O)CSc2nnc(-c3ccc(Cl)s3)o2)CC1`, for which the IC50 was 25.2 µM and the concentration for an effect of 90% (IC90) was 29.9 µM. Turning to `COc1ccc(-c2ccc(C#N)c(SCC(=O)OCc3ccccc3)n2)cc1OC`, the IC50 was 23.9 µM and the IC90 stood at 26.8 µM. The corresponding values for `COC(=O)c1c(NC(=O)CCl)sc(C(=O)N2CCOCC2)c1C` are 10 µM and 23.1 µM.

For `CC(C)OC(=O)c1ccc(NC(=S)NC(=O)c2cncc(Br)c2)cc1`, the IC90 is > 100 µM.

Consider `O=C(OCc1csc(Nc2ccccc2)n1)c1ccc(Cl)cc1`, for which the IC50 was 46.4 µM and the IC90 was found to be 53 µM. In the same order, the values of `O=C(CSc1ncnc2nc[nH]c12)c1ccc(Cl)cc1` are 19.1 µM and 25.4 µM.

As for `COc1ccc2c(c1)CC/C(=C\C=C\c1ccccc1OC)C2=O`, the IC90 is > 100 µM.
